CC50 and EC50 data for 22 compounds are collected here from patent US20230083012A1, “DIHYDROPYRIMIDINE DERIVATIVES AND USES THEREOF IN THE TREATMENT OF HBV INFECTION OR OF HBV-INDUCED DISEASES” (priority 2019, published 2023).

Series [1] in a line: Cytotoxicity determination in HepG2.2.15 cells (CCK-8 cell viability). The class given is cell-based. To be noted: human, 6 days treatment, CCK-8 assay, highest concentration 100 uM. In a few lines: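 HepG2.2.15 cells seeded at 5,000 cells/well in 2% FBS medium, exposed 6 days to compounds (8-point 1:3 dilutions from 100 uM, triplicate), refreshed at day 3. Viability read by CCK-8 after 2.5 h at 37° C, absorbance 450 nm with 630 nm reference; CC50 calculated.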

Series [2] deals with HBV. Briefly: Anti-HBV activity in HepG2.2.15 cells (HBV DNA in culture medium by qPCR). The class given is cell-based. As to conditions: HepG2.2.15 cells, 6 days treatment, HBV DNA in culture medium quantified by real-time PCR, read-out: EC50. In a few lines: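 HepG2.2.15 cells in 2% FBS medium at 37 °C were treated with compounds for 6 days, with medium and compound refreshed at day 3; 1:3 dilutions, 8 concentrations in triplicate, top 10 or 1 uM. HBV DNA in culture medium quantified by qPCR to derive EC50; CC50 from parallel plates (top 100 uM).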
A general note: Quantitative PCR measures a nucleic acid by following its amplification.

Setting [3] is: Hepatitis B virus, HepG2.2.15, 144 h.

Like-named read-outs stand apart in the source and are kept apart here. Some results are limits rather than exact numbers.

As for `CCOC(=O)C1=C(CN2CC(F)(F)[C@@H]3C(=O)N(CC(C)(C)C(=O)O)C[C@@H]32)NC(c2nccs2)=N[C@H]1c1cccc(F)c1Cl` (single isomer, unassigned) [Compound 43, 3-((cis)-1-((6-(2-chloro-3-fluorophenyl)-5-(ethoxycarbonyl)-2-(thiazol-2-yl)-3,6-dihydropyrimidin-4-yl)methyl)-3,3-difluoro-4-oxohexahydropyrrolo[3,4-b]pyrrol-5(1H)-yl)-2,2-dimethylpropanoic acid], in series [1], the CC50 at 6 days was 50.2 µM. Further, the EC50 in series [2] (setting [3]) came out at 0.0041 µM.
In the case of `CCOC(=O)C1=C(CN2CC(F)(F)[C@H]3[C@@H]2CN(C(C)=O)N3CCC(C)(C)C(=O)O)NC(c2nccs2)=N[C@H]1c1cccc(F)c1C` [Compound 70A, 4-((cis)-2-Acetyl-4-(((S)-5-(ethoxycarbonyl)-6-(3-fluoro-2-methylphenyl)-2-(thiazol-2-yl)-3,6-dihydropyrimidin-4-yl)methyl)-6,6-difluorohexahydropyrrolo[3,2-c]pyrazol-1(2H)-yl)-2,2-dimethylbutanoic acid], the cytotoxic concentration (CC50) at 6 days in series [1] is over 50 µM. For the same compound, in series [2], the EC50 amounted to 0.035 µM.
For `CCOC(=O)C1=C(CN2CC(F)(F)[C@@H]3C(=O)N(CC(CC)(CC)C(=O)O)C[C@@H]32)NC(c2nccs2)=N[C@H]1c1cccc(F)c1C` (single isomer, unassigned) [Compound 202], the half-maximal cytotoxic concentration (CC50) at 6 days in series [1] was determined as 100 µM. The EC50 in series [2] (setting [3]) was 0.023 µM.
Turning to `CCOC(=O)C1=C(CN2CC(F)(F)[C@H]3[C@@H]2CC2(CC2)N3CCC(C)(C)C(=O)O)NC(c2nccs2)=N[C@H]1c1cccc(F)c1C` (single isomer, unassigned) [Compound 154], the CC50 at 6 days in series [1] came out at 48.3 µM. The EC50 in series [2] (setting [3]) turned out to be 0.071 µM.
The corresponding values for `COC(=O)C1=C(CN2CC(F)(F)[C@H]3[C@@H]2CCN3C[C@H](C)C(=O)O)NC(c2nccs2)=N[C@H]1c1cccc(F)c1Cl` (single isomer, unassigned) [Compound 132B, 3-((cis)-4-((6-(2-Chloro-3-fluorophenyl)-5-(methoxycarbonyl)-2-(thiazol-2-yl)-3,6-dihydropyrimidin-4-yl)methyl)-6,6-difluorohexahydropyrrolo[3,2-b]pyrrol-1(2H)-yl)-2-methylpropanoic acid] are 71.8 µM and 0.0107 µM.
The matching figures for `CCOC(=O)C1=C(CN2CC(F)(F)[C@H]3[C@@H]2CCN3C[C@H]2CC[C@H]2C(=O)O)NC(c2nccs2)=N[C@H]1c1cccc(F)c1C` (single isomer, unassigned) [Compound 130B]: 18.2 µM and under 0.0005 µM.
Turning to `CCOC(=O)C1=C(CN2CC[C@H]3C(=O)N(CC(C)(C)C(=O)O)C(=O)[C@H]32)NC(c2nccs2)=N[C@H]1c1cccc(F)c1C` (relative stereo) [Compound 4A, 3-(1-(((S)-5-(ethoxycarbonyl)-6-(3-fluoro-2-methylphenyl)-2-(thiazol-2-yl)-3,6-dihydropyrimidin-4-yl)methyl)-4,6-dioxohexahydropyrrolo[3,4-b]pyrrol-5(1H)-yl)-2,2-dimethylpropanoic acid], in series [1], it took 32.6 µM to reach half-maximal cytotoxicity (CC50 at 6 days). Moreover, the EC50 in series [2] (setting [3]) worked out at 0.0063 µM.
The corresponding values for `CCOC(=O)C1=C(CN2CC(F)(F)[C@H]3[C@@H]2CCN3CC2(CC(=O)O)CC2)NC(c2nccs2)=N[C@H]1c1cccc(F)c1C` (relative stereo) [Compound 49, 2-(1-((4-(((S)-5-(ethoxycarbonyl)-6-(3-fluoro-2-methylphenyl)-2-(thiazol-2-yl)-3,6-dihydropyrimidin-4-yl)methyl)-6,6-difluorohexahydropyrrolo[3,2-b]pyrrol-1(2H)-yl)methyl)cyclopropyl)-acetic acid] are 25.5 µM and 0.0326 µM.
The matching figures for `CCOC(=O)C1=C(CN2CC(F)(F)C3CN(C(C)C(=O)O)CC32)NC(c2nccs2)=N[C@H]1c1cccc(F)c1C` (stereo in doubt) [Compound 14, 2-((cis)-1-(((S)-5-(Ethoxycarbonyl)-6-(3-fluoro-2-methylphenyl)-2-(thiazol-2-yl)-3,6-dihydropyrimidin-4-yl)methyl)-3,3-difluorohexahydropyrrolo[3,4-b]pyrrol-5(1H)-yl)propanoic acid]: over 100 µM and 0.137 µM.
As for `COC(=O)C1=C(CN2CC(F)(F)[C@@H]3[C@H]2CON3CCC(C)(C)C(=O)O)NC(c2nccs2)=N[C@H]1c1ccc(F)c(F)c1C` (single isomer, unassigned) [Compound 161, (cis)-4-(4-((6-(3,4-difluoro-2-methylphenyl)-5-(methoxycarbonyl)-2-(thiazol-2-yl)-3,6-dihydropyrimidin-4-yl)methyl)-6,6-difluorohexahydro-1H-pyrrolo[3,2-c]isoxazol-1-yl)-2,2-dimethylbutanoic acid], the CC50 at 6 days in series [1] was over 50 µM. The EC50 in series [2] (setting [3]) was determined as 0.008 µM.
Regarding `CCOC(=O)C1=C(CN2CC(F)(F)[C@@H]3[C@H]2CN(C)N3CC2CC(C)(C(=O)O)C2)NC(c2nccs2)=N[C@H]1c1cccc(F)c1C` (single isomer, unassigned) [Compound 98], the CC50 at 6 days in series [1] was over 6.2 µM. In series [2] (setting [3]), the half-maximal effective concentration (EC50) came to 0.014 µM.
The corresponding values for `COC(=O)C1=C(CN2CC(F)(F)[C@@H]3CN(C(=O)C(C)(C)C(=O)O)C[C@@H]32)NC(c2nccs2)=N[C@H]1c1ccc(F)cc1Cl` (single isomer, unassigned) [Compound 208, 3-((cis)-1-((6-(2-chloro-4-fluorophenyl)-5-(methoxycarbonyl)-2-(thiazol-2-yl)-3,6-dihydropyrimidin-4-yl)methyl)-3,3-difluorohexahydropyrrolo[3,4-b]pyrrol-5(1H)-yl)-2,2-dimethyl-3-oxopropanoic acid] are over 100 µM and 0.0286 µM.
The matching figures for `CCOC(=O)C1=C(CN2CC(F)(F)[C@@H]3CN(C(=O)CC(C)(C)C(=O)O)C[C@@H]32)NC(c2nccs2)=N[C@H]1c1cccc(F)c1C` (single isomer, unassigned) [Compound 23B]: 30.2 µM and 0.024 µM.
The corresponding values for `CCOC(=O)C1=C(CN2CC(F)(F)[C@H]3[C@@H]2CCN3CC[C@H]2C[C@H](C(=O)O)C2)NC(c2nccs2)=N[C@H]1c1cccc(F)c1C` (single isomer, unassigned) [Compound 129B] are 12.4 µM and 0.0029 µM.
In series [1], `COC(=O)C1=C(CN2CC(F)(F)[C@@H]3CN(CC(C)(C)C(=O)O)C[C@@H]32)NC(c2nccs2)=N[C@H]1c1ccc(F)cc1Cl` (single isomer, unassigned) [Compound 20B, 3-((cis)-1-((6-(2-chloro-4-fluorophenyl)-5-(methoxycarbonyl)-2-(thiazol-2-yl)-3,6-dihydropyrimidin-4-yl)methyl)-3,3-difluorohexahydropyrrolo[3,4-b]pyrrol-5(1H)-yl)-2,2-dimethylpropanoic acid] returned a CC50 at 6 days of over 100 µM. Also, in series [2] (setting [3]), the EC50 worked out at 0.0395 µM.
The corresponding values for `[2H]C([2H])([2H])N1C[C@@H]2[C@H](N1CCC(C)(C)C(=O)O)C(F)(F)CN2CC1=C(C(=O)OCC)[C@H](c2cccc(F)c2C)N=C(c2nccs2)N1` (single isomer, unassigned) [Compound 100] are 12 µM and 0.011 µM.
Compound `CCOC(=O)C1=C(CN2CC(F)(F)[C@@H]3CN(C(=O)CC(C)(C)C(=O)O)C(=O)[C@@H]32)NC(c2nccs2)=N[C@H]1c1cccc(F)c1C` (single isomer, unassigned) [Compound 191] gave a CC50 at 6 days in series [1] of 35.9 µM. In series [2] (setting [3]), the EC50 amounted to 0.0135 µM.
The corresponding values for `COC(=O)C1=C(CN2CC(F)(F)[C@H]3[C@@H]2CCN3CCC(C)(C)C(=O)O)NC(c2ncoc2C)=N[C@H]1c1ccc(F)cc1Cl` (single isomer, unassigned) [Compound 125, 4-((cis)-4-((6-(2-chloro-4-fluorophenyl)-5-(methoxycarbonyl)-2-(5-methyloxazol-4-yl)-3,6-dihydropyrimidin-4-yl)methyl)-6,6-difluorohexahydropyrrolo[3,2-b]pyrrol-1(2H)-yl)-2,2-dimethylbutanoic acid] are 58.4 µM and 0.0093 µM.
The corresponding values for `[H][C@]1(N2CC[C@H]3[C@@H]2C(F)(F)CN3CC2=C(C(=O)OCC)[C@H](c3cccc(F)c3C)N=C(c3nccs3)N2)C[C@@]2(C[C@@H](C(=O)O)C2)C1` (single isomer, unassigned) [Compound 113A] are over 3 µM and 0.005 µM.
The matching figures for `CCOC(=O)C1=C(CN2CC(F)(F)[C@H]3[C@@H]2CCN3CCC(C)(C)c2nnn[nH]2)NC(c2nccs2)=N[C@H]1c1cccc(F)c1C` (single isomer, unassigned) [Compound 108]: 13.1 µM and 0.0004 µM.
In series [1], `COC(=O)C1=C(CN2CC(F)(F)[C@@H]3[C@H]2CON3CCC(C)(C)C(=O)O)NC(c2nccs2)=N[C@H]1c1ccc(F)cc1Cl` (single isomer, unassigned) [Compound 168, 4-((cis)-4-((6-(2-chloro-4-fluorophenyl)-5-(methoxycarbonyl)-2-(thiazol-2-yl)-3,6-dihydropyrimidin-4-yl)methyl)-6,6-difluorohexahydro-1H-pyrrolo[3,2-c]isoxazol-1-yl)-2,2-dimethylbutanoic acid] registered a CC50 at 6 days of over 100 µM. Further, the EC50 in series [2] (setting [3]) amounted to 0.009 µM.
The corresponding values for `CCOC(=O)C1=C(CN2CC(F)(F)[C@H]3[C@@H]2CCN3CCC2(C(=O)O)CC2)NC(c2nccs2)=N[C@H]1c1cccc(F)c1C` (single isomer, unassigned) [Compound 117] are 24.7 µM and under 0.0005 µM.

In general, CC50 refers to the concentration giving 50% cytotoxicity. Low readings indicate greater toxicity to the cells, high ones lower toxicity to the cells. The term EC50 denotes the midpoint of the concentration-response curve.
